Results from patent US20260166039A1 (SCHRÖDINGER, INC., priority 2022, published 2026).
Read-outs that look alike come from different tables or passages of the source.

Experiments:
Wee1 kinase domain = target: T1, Wee1 kinase domain (Homo sapiens, UniProt P30291); experiment: Wee1 Kinase Biochemical Assay (ADP-Glo); settings: 15 uM ATP
T1 construct: Wee1 kinase domain was purchased from Carna (catalog #05-177); purchased Carna 05-177
Procedure, shortened: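 Carna Wee1 kinase domain at 1 nM, with 15 uM ATP and 2 ng/mL poly(Lys,Tyr 4:1) substrate in 40 mM Tris-HCl, 20 mM MgCl2, 0.1 mg/mL BSA, 2 mM DTT, run 4 h at 25° C. ADP formation read by ADP-Glo luminescence. Percent inhibition normalised to DMSO and saturating-inhibitor controls.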

[1] = tested on: phosphorylation of Cdc2 Y15 (Wee1 substrate) in A427 cells; experiment: Phosphorylated Cdc2 MSD Electrochemiluminescence Assay; format: cell-based; settings: Homo sapiens
Procedure, shortened: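 A427 cells (RPMI 1640, 10% FBS) treated 20 h after plating with 3-fold serial compound dilutions, in duplicate, 37 °C, 5% CO2; total incubation 6 h. Lysate Cdc2 pY15 read by MSD electrochemiluminescence sandwich immunoassay; % remaining signal normalised to DMSO (high) and reference Wee1 inhibitor (low) controls.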

[2] = class symbols, 1 nM Wee1 enzyme, 4 hours at 25° C.
[3] = A-427, class symbols, read-out: A427 pCDC2 MSD IC50

T1 sequence (P30291 299-569 limits assumed): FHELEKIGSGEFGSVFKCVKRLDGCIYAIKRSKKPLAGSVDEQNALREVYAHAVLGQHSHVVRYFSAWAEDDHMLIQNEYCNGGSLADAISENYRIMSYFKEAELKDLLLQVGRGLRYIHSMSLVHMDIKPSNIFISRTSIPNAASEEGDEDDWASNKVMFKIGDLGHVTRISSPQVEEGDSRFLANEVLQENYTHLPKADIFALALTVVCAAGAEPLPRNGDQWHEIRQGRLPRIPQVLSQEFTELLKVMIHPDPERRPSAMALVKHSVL

| IC50 (Wee1 kinase domain; [2]) | IC50 [1, 3] | IC50 (Wee1 kinase domain; Wee1 kinase domain, ADP-Glo) | IC50 ([1]; A-427, pCDC2 MSD) | Structure (SMILES) |
| --- | --- | --- | --- | --- |
| < 10 nM | 100 to 1000 nM | – | – | C[C@H]1CCC(=O)N1c1cccc(N2c3nc(Nc4ccc(N5CC6(CN(C)C6)C5)cc4)ncc3[C@@]3(C)COCC[C@@H]23)n1 (single isomer, unassigned) [Example 776] |
| – | – | < 10 nM | 100 to 1000 nM | C[C@H]1COC(=O)N1c1cccc(N2c3nc(Nc4ccc(OC5CCNCC5)nc4)ncc3[C@@]3(C)COC(C)(C)C[C@@H]23)n1 (single isomer, unassigned) [Example 325] |
| – | – | < 10 nM | < 100 nM | CN1CCC(c2ccc(Nc3ncc4c(n3)N(c3cccc(N=S(C)(C)=O)n3)[C@@H]3CC(C)(C)OC[C@]43C)cn2)CC1 (single isomer, unassigned) [Example 140] |
| < 10 nM | 100 to 1000 nM | – | – | CC1(C)C[C@H]2N(c3cccc(N4CCOC4=O)n3)c3nc(Nc4ccc([C@@H]5CNCC5(F)F)cc4)ncc3[C@@]2(C)CO1 [Example 680, 3-(6-((4bR,8aR)-2-((4-((R)-4,4-difluoropyrrolidin-3-yl)phenyl)amino)-4b,7,7-trimethyl-4b,7,8,8a-tetrahydropyrano[3′,4′:4,5]pyrrolo[2,3-d]pyrimidin-9(5H)-yl)pyridin-2-yl)oxazolidin-2-one] |
| – | – | < 10 nM | < 100 nM | CNCc1cccc(N2c3nc(Nc4ccc([C@@H]5CC(=O)N(C)C5)cc4)ncc3[C@@]3(C)COC(C)(C)C[C@@H]23)n1 (single isomer, unassigned) [Example 69] |
| – | – | < 10 nM | < 100 nM | CN1CCC(c2ncc(Nc3ncc4c(n3)N(c3cccc(N=S(C)(C)=O)n3)[C@@H]3CC(C)(C)OC[C@]43C)s2)CC1 (single isomer, unassigned) [Example 221] |
| < 10 nM | 100 to 1000 nM | – | – | CC1(C)C[C@H]2N(c3cccc(N=S(C)(C)=O)n3)c3nc(NC(=O)[C@@H]4C[C@H]4c4cccnc4)ncc3[C@@]2(C)CO1 (single isomer, unassigned) [Example 401] |
| – | – | < 10 nM | 100 to 1000 nM | C[C@H]1COC(=O)N1c1cccc(N2c3nc(Nc4ccn(C5CCN(C)CC5)c(=O)c4)ncc3[C@@]3(C)COC(C)(C)C[C@@H]23)n1 (single isomer, unassigned) [Example 273] |
| < 10 nM | 100 to 1000 nM | – | – | COc1cccc(N2c3nc(Nc4ccc(N5CCN(C)CC5)cc4)ncc3[C@@]3(C)COC(C)(C)C[C@@H]23)n1 (single isomer, unassigned) [Example 758] |
| < 10 nM | 100 to 1000 nM | – | – | CNCc1cccc(N2c3nc(Nc4ccc(-c5cnn(C)c5)nc4)ncc3[C@@]3(C)COC(C)(C)C[C@@H]23)n1 (single isomer, unassigned) [Example 460] |
| – | – | < 10 nM | 100 to 1000 nM | C[C@H]1COC(=O)N1c1cccc(N2c3nc(Nc4ccc([C@@H]5CCNC5)cc4)ncc3[C@@]3(C)COC(C)(C)C[C@@H]23)n1 (single isomer, unassigned) [Example 275] |
| < 10 nM | ≥ 10000 nM | – | – | CC1(C)C[C@H]2N(c3cccc(N=S(C)(C)=O)n3)c3nc(NC(=O)[C@@H]4C[C@H]4C4CCOCC4)ncc3[C@@]2(C)CO1 (single isomer, unassigned) [Example 412] |
| < 10 nM | < 100 nM | – | – | C[C@H]1CCC(=O)N1c1cccc(N2c3nc(Nc4ccc(C5CN(C)C5)cc4)ncc3[C@@]3(C)COC(C)(C)C[C@@H]23)n1 (single isomer, unassigned) [Example 727] |
| < 10 nM | < 100 nM | – | – | CC1(C)C[C@H]2N(c3cccc(C(C)(C)N)n3)c3nc(Nc4ccc(N5CCOCC5)cc4)ncc3[C@@]2(C)CO1 (single isomer, unassigned) [Example 567] |
| – | – | < 10 nM | 100 to 1000 nM | CNCc1cccc(N2c3nc(Nc4ccc(N5CCOCC5)cc4)ncc3[C@@]3(C)COC(C)(C)C[C@@H]23)n1 (single isomer, unassigned) [Example 5] |
